Experimental findings from patent US20230141284A1, “CANCER THERAPEUTIC METHOD” (ONO PHARMACEUTICAL CO., LTD., priority 2020, published 2023) are described below.

In general, EC50 refers to the concentration that produces a half-maximal response.

SMILES strings stand for the structures. Structures can show the parent of a compound that is named as a salt.

The subject of data set [1] is IRF (Interferon Regulatory Factor) pathway. Kind of data set: Effect on IRF (Interferon Regulatory Factor) pathway, Quanti-luc reporter cells. The format is cell-based. Particulars: activation of the IRF pathway, luminescence, about 24 hours incubation. The procedure:
The cells mainly described at lines 12-20 of the right column on page 183 in Mol Immunol. 2017, Vol. 90, p. 182-189 were suspended in RPMI medium to prepare 2×10^6 cells/mL of cell suspension. 50 μL of the cell suspensions were dispensed into a 96-well plate, to which 50 μL of 6 to 20,000 nmol/L compound solutions were added. After adding the compound, the mixture thereof was incubated at 37° C. for about 24 hours. After incubation, 10 μL of cell suspensions were collected from each well, which were mixed with 50 μL of Quanti-luc (Invivogen). Then, the activation of the IRF pathway was measured by detecting luminescence using a microplate reader (Molecular Devices).

The nature of data set [2]: Conversion of a prodrug to its active body (Compound B) in mouse plasma. The format is in vitro ADME. The conditions noted are these: 1 μmol/L, 37° C., 60 minutes. The procedure: (§1) The solutions of the example compounds in Table 2 below (50 μmol/L, 50% acetonitrile with 5% DMSO) were added to plasma (245 μL), respectively, such that the final concentrations thereof become 1 μmol/L. After keeping them the temperature at 37° C. for 60 minutes, 40 μL of the reaction solutions were taken therefrom, and added to 200 μL of acetonitrile/ethanol (7:3) containing Candesartan (internal standard).
(§2) The concentration of the compound prepared in Example 3 (Compound B) in the plasma resulting from the above reaction was analyzed by LC-MS/MS according to the following method.
(§3) The whole amount was transferred to a filter plate for protein removal and filtered by suction, and the filtrate thereof was diluted 2-fold with water. [LC column] Shim-pack XR-ODSII 2.0 mm ID×75 mm (Shimadzu Corporation) [LC condition] Column temperature: 40° C. Mobile phase: A: 0.2% formic acid in 5 mM ammonium acetate solution; and
(§4) [MS conditions] Electrospray, positive mode, multiple reaction monitoring; MS monitor ion: Compound B: m/z353.0→m/z311.2, DP: 80, CE: 35; and Candesartan (internal standard): m/z309.1→m/z163.0, DP: 71, CE: 21.
(§5) A regression formula was calculated from the peak area ratio (peak area of Compound B/peak area of Candesartan) of the real sample and the standard sample for the calibration curve in the same matrix, and the peak area ratio of the real sample was substituted into the regression formula to calculate the quantitative value. 60 minutes later, the concentration of Compound B in the sample was compared, and the conversion rate (%) thereof was calculated using the following formula:
(§6) Conversion rate (%)=Concentration of Compound B in the sample after 60 minutes (μmol/L)×100

A short description of data set [3]: Conversion of a prodrug to its active body (Compound B) in human plasma. The format is in vitro ADME. Particulars: 1 μmol/L, 37° C., 60 minutes. The procedure:
as §1, §2, §3, §4, §5, §6

With `NC(=O)c1cc(-c2ncc(-c3cn[nH]c3)c3onc(N)c23)c(F)cc1N` [Example 4(5), 2-amino-5-(3-amino-7-(1H-pyrazol-4-yl)isoxazolo[4,5-c]pyridin-4-yl)-4-fluorobenzamide hydrochloride], the EC50 in data set [1] is 80 nM.

The compound `CSc1cc(-c2ncc(-c3cn[nH]c3)c3onc(N)c23)c(Cl)cc1N` [Example 4(16), 4-(4-amino-2-chloro-5-(methylthio)phenyl)-7-(1H-pyrazol-4-yl)isoxazolo[4,5-c]pyridin-3-amine hydrochloride] came in with an EC50 in data set [1] of 1000 nM.

Regarding `CC(=O)c1cc(-c2ncc(-c3cnn(COC(=O)N4CCC(N5CCCCC5)CC4)c3)c3onc(N)c23)c(F)cc1N` [Example 12, (4-(4-(5-acetyl-4-amino-2-fluorophenyl)-3-aminoisoxazolo[4,5-c]pyridin-7-yl)-1H-pyrazol-1-yl)methyl [1,4′-bipiperidine]-1′-carboxylate], the “Plasma conversion rate Mouse” value in data set [2] is “+ (the conversion rate of each example compound in the table to Compound B is less than 25%)”. In addition, the “Plasma conversion rate Human” value in data set [3] is recorded as “+ (the conversion rate of each example compound in the table to Compound B is less than 25%)”.

Take `CC(=O)c1cc(-c2ncc(-c3cnn(COC(=O)OC[C@H]4OC(O)[C@H](O)[C@@H](O)[C@@H]4O)c3)c3onc(N)c23)c(F)cc1N` (stereo partly drawn) [Example 12(5), (4-(4-(5-acetyl-4-amino-2-fluorophenyl)-3-aminoisoxazolo[4,5-c]pyridin-7-yl)-1H-pyrazol-1-yl)methyl (((2R,3S,4S,5R)-3,4,5,6-tetrahydroxytetrahydro-2H-pyran-2-yl)methyl) carbonate]: the “Plasma conversion rate Mouse” value in data set [2] is listed as “+ + +”. The “Plasma conversion rate Human” value in data set [3] is recorded as “+ + +”.

Take `COC(=O)n1cc(-c2cnc(-c3cc(C(C)=O)c(N)cc3F)c3c(N)noc23)cn1` [Example 12(10), methyl 4-(4-(5-acetyl-4-amino-2-fluorophenyl)-3-aminoisoxazolo[4,5-c]pyridin-7-yl)-1H-pyrazole-1-carboxylate]: in data set [2], the “Plasma conversion rate Mouse” value was “+ + +”. Also, the “Plasma conversion rate Human” value in data set [3] is “+ + +”.

`CCOC(=O)c1cc(-c2ncc(-c3cn[nH]c3)c3onc(N)c23)c(F)cc1N` [Example 4(6), ethyl 2-amino-5-(3-amino-7-(1H-pyrazol-4-yl)isoxazolo[4,5-c]pyridin-4-yl)-4-fluorobenzoate hydrochloride] displayed an EC50 in data set [1] of 40 nM.

For the compound `CC(=O)c1cc(-c2ncc(-c3cnn(COC(=O)N(C)c4ncccc4COP(=O)(O)O)c3)c3onc(N)c23)c(F)cc1N` [Example 12(1), (4-(5-(5-acetyl-4-amino-2-fluorophenyl)-3-aminoisoxazolo[4,5-c]pyridin-7-yl)-1H-pyrazol-1-yl)methyl methyl(3-((phosphonooxy)methyl)pyridin-2-yl)carbamate], in data set [2], the “Plasma conversion rate Mouse” value is listed as “+ (the conversion rate of each example compound in the table to Compound B is less than 25%)”. In addition, in data set [3], the “Plasma conversion rate Human” value is recorded as “+ +”.

On to `CNCC(=O)OCc1cccnc1N(C)C(=O)OC(C)n1cc(-c2cnc(-c3cc(C(C)=O)c(N)cc3F)c3c(N)noc23)cn1` (stereo not drawn) [Example 12(2), (2-(((1-(4-(5-(5-acetyl-4-amino-2-fluorophenyl)-3-aminoisoxazolo[4,5-c]pyridin-7-yl)-1H-pyrazol-1-yl)ethoxy)carbonyl)(methyl)amino)pyridin-3-yl)methyl methylglycinate], for which the “Plasma conversion rate Mouse” value in data set [2] is listed as “+ + +”. For the same compound, in data set [3], the “Plasma conversion rate Human” value is reported as “+ + +”.

As for `CNCC(=O)OCc1cccnc1N(C)C(=O)OCn1cc(-c2cnc(-c3cc(C(C)=O)c(N)cc3F)c3c(N)noc23)cn1.Cl` [Example 12(3), 2-((2-((((4-(4-(5-acetyl-4-amino-2-fluorophenyl)-3-aminoisoxazolo[4,5-c]pyridin-7-yl)-1H-pyrazol-1-yl)methoxy)carbonyl)(methyl)amino)pyridin-3-yl)methoxy)-N-methyl-2-oxoethane-1-ammonium chloride], in data set [2], the “Plasma conversion rate Mouse” value is “+ + +”. Further, in data set [3], the “Plasma conversion rate Human” value is listed as “+ + +”.

As for `CC(=O)c1cc(-c2ncc(-c3cnn(COC(=O)OCCN4CCOCC4)c3)c3onc(N)c23)c(F)cc1N.Cl` [Example 12(4), (4-(4-(5-acetyl-4-amino-2-fluorophenyl)-3-aminoisoxazolo[4,5-c]pyridin-7-yl)-1H-pyrazol-1-yl)methyl (2-morpholinoethyl)carbonate hydrochloride], in data set [2], the “Plasma conversion rate Mouse” value is reported as “+ + +”. In addition, the “Plasma conversion rate Human” value in data set [3] was “+ + +”.

Turning to `CC(=O)c1cc(-c2ncc(-c3cnn(COP(=O)(O)OCOC(=O)OC(C)C)c3)c3onc(N)c23)c(F)cc1N` [Example 12(11), ((((4-(4-(5-acetyl-4-amino-2-fluorophenyl)-3-aminoisoxazolo[4,5-c]pyridin-7-yl)-1H-pyrazol-1-yl)methoxy)(hydroxy)phosphoryl)oxy)methyl isopropyl carbonate], in data set [2], the “Plasma conversion rate Mouse” value was “+ (the conversion rate of each example compound in the table to Compound B is less than 25%)”. In data set [3], the “Plasma conversion rate Human” value is “+ (the conversion rate of each example compound in the table to Compound B is less than 25%)”.

Turning to `CC(=O)c1cc(-c2ncc(-c3cnn(COC(=O)OC[C@H]4OC(O)[C@H](N)[C@@H](O)[C@@H]4O)c3)c3onc(N)c23)c(F)cc1N.Cl` (stereo partly drawn) [Example 12(6), (4-(4-(5-acetyl-4-amino-2-fluorophenyl)-3-aminoisoxazolo[4,5-c]pyridin-7-yl)-1H-pyrazol-1-yl)methyl (((2R,3S,4R,5R)-5-amino-3,4,6-trihydroxytetrahydro-2H-pyran-2-yl)methyl) carbonate hydrochloride], in data set [2], the “Plasma conversion rate Mouse” value is “+ + +”. In addition, the “Plasma conversion rate Human” value in data set [3] is recorded as “+ + +”.

On to `CCC(=O)c1cc(-c2ncc(-c3cn[nH]c3)c3onc(N)c23)c(F)cc1N` [Example 4(7), 1-(2-amino-5-(3-amino-7-(1H-pyrazol-4-yl)isoxazolo[4,5-c]pyridin-4-yl)-4-fluorophenyl)propan-1-one hydrochloride], for which the half-maximal effective concentration (EC50) in data set [1] is 20 nM.

In the case of `CCNC(=O)c1cc(-c2ncc(-c3cn[nH]c3)c3onc(N)c23)c(F)cc1N` [Example 4(8), 2-amino-5-(3-amino-7-(1H-pyrazol-4-yl)isoxazolo[4,5-c]pyridin-4-yl)-N-ethyl-4-fluorobenzamide hydrochloride], the 50% effective concentration (EC50) in data set [1] was found to be 20 nM.

In turn, `CNC(=O)c1cc(-c2ncc(-c3cn[nH]c3)c3onc(N)c23)ccc1N` [Example 4(15), 2-amino-5-(3-amino-7-(1H-pyrazol-4-yl)isoxazolo[4,5-c]pyridin-4-yl)-N-methylbenzamide hydrochloride] showed a 50% effective concentration (EC50) in data set [1] of 100 nM.

On to `CC(=O)c1cc(-c2ncc(-c3cnn(C(=O)NCC(=O)O)c3)c3onc(N)c23)c(F)cc1N` [Example 12(9), (4-(4-(5-acetyl-4-amino-2-fluorophenyl)-3-aminoisoxazolo[4,5-c]pyridin-7-yl)-1H-pyrazole-1-carbonyl)glycine], for which the “Plasma conversion rate Mouse” value in data set [2] is “+ (the conversion rate of each example compound in the table to Compound B is less than 25%)”. In data set [3], the “Plasma conversion rate Human” value is “+ (the conversion rate of each example compound in the table to Compound B is less than 25%)”.

On to `CSc1cc(-c2ncc(-c3cn[nH]c3)c3onc(N)c23)c(F)cc1N` [Example 4, 4-(4-amino-2-fluoro-5-(methylthio)phenyl)-7-(1H-pyrazol-4-yl)isoxazolo[4,5-c]pyridin-3-amine hydrochloride], for which it took 90 nM to reach a half-maximal effect in data set [1] (EC50).
